The record followed here is publication PMC12632547 (bioRxiv, 2025).

One data set has as its target DPP-4 (Homo sapiens, UniProt P27487). The data set can be described thus: In vitro protease stability: DPP-4 half-life assay. Format: in vitro ADME. Conditions: recombinant DPP-4 enzyme, pH 7.4.
Data set [1] can be described thus: Murine plasma pharmacokinetic. Format: in vivo, male ICR mice.
Another data set addresses human GLP-1R (Homo sapiens, UniProt P43220). Briefly: In vitro GLP-1 receptor potency, cAMP signaling. It is filed as cell-based. Conditions: In vitro receptor activity cAMP assay (EC50), CRE-Luc reporter, BHK cells expressing human GLP-1R; mean ± SD, three independent experiments.
Where [2] appears, read: male, ICR, mouse, plasma, iv, 1 mg kg-1.

Sequence of human GLP-1R (P43220 24-463): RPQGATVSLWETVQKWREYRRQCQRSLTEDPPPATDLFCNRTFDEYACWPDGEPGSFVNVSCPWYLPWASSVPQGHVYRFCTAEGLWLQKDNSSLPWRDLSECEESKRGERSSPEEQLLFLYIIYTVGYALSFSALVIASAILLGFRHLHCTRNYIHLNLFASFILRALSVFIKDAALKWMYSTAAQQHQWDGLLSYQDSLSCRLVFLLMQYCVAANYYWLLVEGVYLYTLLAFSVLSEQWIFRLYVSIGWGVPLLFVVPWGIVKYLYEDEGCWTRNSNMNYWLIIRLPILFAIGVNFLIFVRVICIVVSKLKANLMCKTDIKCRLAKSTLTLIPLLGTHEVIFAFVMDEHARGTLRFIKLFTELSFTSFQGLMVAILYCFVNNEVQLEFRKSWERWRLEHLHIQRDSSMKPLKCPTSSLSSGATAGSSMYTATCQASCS
Sequence of DPP-4 (P27487 whole entry): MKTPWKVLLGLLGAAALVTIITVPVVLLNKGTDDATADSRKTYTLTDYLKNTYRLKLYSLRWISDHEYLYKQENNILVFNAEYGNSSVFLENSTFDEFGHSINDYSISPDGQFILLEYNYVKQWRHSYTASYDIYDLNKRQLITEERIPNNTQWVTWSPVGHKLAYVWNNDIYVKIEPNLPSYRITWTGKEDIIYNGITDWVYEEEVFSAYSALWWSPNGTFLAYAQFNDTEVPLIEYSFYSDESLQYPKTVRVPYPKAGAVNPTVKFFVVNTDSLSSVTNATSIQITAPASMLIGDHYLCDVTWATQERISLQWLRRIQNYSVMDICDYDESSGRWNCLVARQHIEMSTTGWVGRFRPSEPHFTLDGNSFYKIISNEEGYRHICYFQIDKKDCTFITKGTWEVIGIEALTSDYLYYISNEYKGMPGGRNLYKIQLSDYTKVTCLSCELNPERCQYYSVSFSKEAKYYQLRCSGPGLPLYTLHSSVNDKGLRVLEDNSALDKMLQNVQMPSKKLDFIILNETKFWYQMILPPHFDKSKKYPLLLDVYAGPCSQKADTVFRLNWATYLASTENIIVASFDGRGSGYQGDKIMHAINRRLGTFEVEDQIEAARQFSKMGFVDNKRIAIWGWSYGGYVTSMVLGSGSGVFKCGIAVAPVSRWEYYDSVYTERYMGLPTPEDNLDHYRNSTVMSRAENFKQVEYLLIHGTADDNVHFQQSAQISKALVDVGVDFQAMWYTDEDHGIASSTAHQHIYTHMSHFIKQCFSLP

`CC[C@H](C)[C@H](NC(=O)[C@H](Cc1ccccc1)NC(=O)[C@H](CCC(=O)O)NC(=O)[C@H](CCCCN)NC(=O)[C@H](C)NC(=O)[C@H](C)NC(=O)[C@H](CCC(N)=O)NC(=O)CNC(=O)[C@H](CCC(=O)O)NC(=O)[C@H](CC(C)C)NC(=O)[C@H](Cc1ccc(O)cc1)NC(=O)[C@H](CO)NC(=O)[C@H](CO)NC(=O)[C@@H](NC(=O)[C@H](CC(=O)O)NC(=O)[C@H](CO)NC(=O)[C@@H](NC(=O)[C@H](Cc1ccccc1)NC(=O)[C@@H](NC(=O)CNC(=O)[C@H](CCC(=O)O)NC(=O)[C@H](C)NC(=O)N(N)Cc1c[nH]cn1)[C@@H](C)O)[C@@H](C)O)C(C)C)C(=O)N[C@@H](C)C(=O)N[C@@H](Cc1c[nH]c2ccccc12)C(=O)N[C@@H](CC(C)C)C(=O)N[C@H](C(=O)N[C@@H](CCCNC(=N)N)C(=O)NCC(=O)N[C@@H](CCCNC(=N)N)C(=O)NCC(=O)O)C(C)C` [AzaH7, [azaHis^7/R^34]-GLP-1(7–37)]: the half-life at 0.1 mmol/l at DPP-4 is above 24 h. Besides, in data set [1] (setting [2]), the clearance was around 7 mL/min/kg and the half-life was 1.67 ± 0.52 h. Moreover, the “plasma half-life” value in data set [1] (mice, single IV 1 mg kg^−1, plasma, hours converted to minutes) is around 1.67 h. The EC50 on human GLP-1R is 0.743 ± 0.164 nM.
